# Experimental data as given in ChEMBL document CHEMBL1932984, “Novel bis(indolyl)hydrazide-hydrazones as potent cytotoxic agents” (Bioorg Med Chem Lett, 2012).
# Assays:
# Type in all cases: functional, cell-based
# MDA-MB-231 = test: Cytotoxicity against human MDA-MB-231 cells
# PC-3 = test: Cytotoxicity against human PC3 cells
# MIA PaCa-2 = test: Cytotoxicity against human MIAPaCa2 cells
# LNCaP = test: Cytotoxicity against human LNCAP cells
# DU-145 = test: Cytotoxicity against human DU145 cells
# MCF7 = test: Cytotoxicity against human MCF7 cells
Compound,IC50 (MDA-MB-231) [µM],IC50 (PC-3) [µM],IC50 (MIA PaCa-2) [µM],IC50 (LNCaP) [µM],IC50 (DU-145) [µM],IC50 (MCF7) [µM]
O=C(N/N=C\c1cn(Cc2ccc(Cl)cc2)c2ccccc12)c1c[nH]c2ccccc12,66.4,16.2,44.3,> 100,52.1,96.7
O=C(N/N=C\c1cn(Cc2ccc(Cl)cc2)c2ccc(Br)cc12)c1c[nH]c2ccccc12,1,12.4,8.7,3.7,3.6,3.2
COc1ccc2c(c1)c(/C=N\NC(=O)c1c[nH]c3ccccc13)cn2Cc1ccc(Cl)cc1,82.7,30.3,26.7,> 100,50,8.7
O=C(N/N=C\c1cn(Cc2ccc(Cl)cc2)c2cc(F)ccc12)c1c[nH]c2ccccc12,5.3,19.5,18,55.2,18.6,6
COc1ccc2c(c1)c(/C=N\NC(=O)c1c[nH]c3ccc(Br)cc13)cn2Cc1ccc(Cl)cc1,5,15.9,26.3,> 100,57,29.1
O=C(N/N=C\c1cn(Cc2ccc(Cl)cc2)c2cc(F)ccc12)c1c[nH]c2ccc(Br)cc12,5.1,12.4,10.6,24.8,12.5,8.3
COc1ccc(Cn2cc(/C=N\NC(=O)c3c[nH]c4ccccc34)c3ccccc32)cc1,15.1,14.6,41.6,31.9,43.9,12.4
COc1ccc(Cn2cc(/C=N\NC(=O)c3c[nH]c4ccccc34)c3cc(OC)ccc32)cc1,9.8,13.6,30.5,> 100,19.1,15
COc1ccc(Cn2cc(/C=N\NC(=O)c3c[nH]c4ccccc34)c3ccc(F)cc32)cc1,71.2,18.4,43.3,> 100,16.2,13.1
COc1ccc(Cn2cc(/C=N\NC(=O)c3c[nH]c4ccc(Br)cc34)c3ccc(F)cc32)cc1,99.8,21.8,45.5,> 100,67.5,31.7
COc1ccc(Cn2cc(/C=N\NC(=O)c3c[nH]c4ccc(Br)cc34)c3cc(OC)ccc32)cc1,61.2,28,44.5,> 100,84.4,3.1
COc1ccc(Cn2cc(/C=N\NC(=O)c3cn(C)c4ccccc34)c3ccc(F)cc32)cc1,17.7,12.8,55.8,9.6,15.2,22.6
Cn1cc(C(=O)N/N=C\c2cn(Cc3ccc(Cl)cc3)c3cc(F)ccc23)c2ccccc21,> 100,22.1,50.4,> 100,84.2,90.6
COc1ccc2c(c1)c(/C=N\NC(=O)c1cn(C)c3ccccc13)cn2Cc1ccc(Cl)cc1,> 100,21.2,56.4,> 100,93,99.1
COc1cccc2c1C(=O)c1c(O)c3c(c(O)c1C2=O)C[C@@](O)(C(=O)CO)C[C@@H]3O[C@H]1C[C@H](N)[C@H](O)[C@H](C)O1 [DOXORUBICIN],3.07,62.3,18.2,5.23,15.7,11.7
